As a reminder, the melting point is the temperature of the solid-liquid transition.

Among the data in patent US7767626B2, “3-arylphenyl sulfide derivative and insecticide and miticide” (Kumiai Chemical Industry Co., Ltd., priority 1998, dated 2010) are melting point and pest or weed control values, retold here.

For data set [1], the system named is two-spotted spider mites. Description: Insecticidal test on two-spotted spider mites (Test Example 1). The class given is in vivo. Conditions: Tetranychus urticae, 312 h, read-out: preventive value. From the text: Test Example 1 Insecticidal Test on Two-Spotted Spider Mites
Where [2] appears, read: wettable powder diluted to 500 ppm active ingredient, soybean seedlings inoculated with adult mites immersed, survivors counted after 13 days, Equation 1.

Read-outs that look alike come from different tables or passages of the source.

`CCSc1cc(-c2ccc(Cl)cc2Cl)ccc1C#N` yielded a melting point of 89 to 92 °C.

In the case of `CSc1cc(-c2ccccc2)c(C#N)c(N)c1C#N` [Comparative Compound 1, 2-amino-6-methylthio-4-phenyl-benzene-1,3-dicarbonitrile, reference compound], in data set [1] (setting [2]), the pest or weed control at 500 µg/mL was determined as 0%. With `CSc1cc(-c2ccccc2)c(C#N)c(N)c1[N+](=O)[O-]` [Comparative Compound 2, 2-amino-6-phenyl-4-methylthio-3-nitrobenzonitrile, reference compound], the pest or weed control at 500 µg/mL in data set [1] (setting [2]) was 0%. Molecule `C=CCSc1cc(-c2ccc(C(F)(F)F)cc2)ccc1C#N` [Compound I-42, 2-(2-propenylthio)-4-(4-trifluoromethylphenyl)benzonitrile] yielded a melting point of 89 to 90 °C. In addition, the pest or weed control at 500 µg/mL in data set [1] (in Glycine max) is ≥ 90%. For `CCOCOc1ccc(-c2ccc(C(F)(F)F)cc2)cc1SCC(F)(F)F` [Compound I-213, [2-ethoxymethoxy-5-(4-trifluoromethylphenyl)phenyl] 2,2,2-trifluoroethyl sulfide], the pest or weed control at 500 µg/mL in data set [1] (in Glycine max) was ≥ 90%. Turning to `CCCSc1cc(-c2ccc(C(F)(F)F)cc2)c(F)cc1[N+](=O)[O-]` [Compound I-221, [4-fluoro-2-nitro-5-(4-trifluoromethylphenyl)phenyl] propyl sulfide], the melting point lay in the range of 57 to 59 °C. For the same molecule, the pest or weed control at 500 µg/mL in data set [1] (in Glycine max) was ≥ 90%. As to `N#Cc1ccc(-c2n[nH]cc2C(F)(F)F)cc1SCC(F)(F)F` [Compound V-639, 2-(2,2,2-trifluoroethylthio)-4-(4-trifluoromethylpyrazolyl)benzonitrile], the melting point was 90 to 91 °C. Moreover, the pest or weed control at 500 µg/mL in data set [1] (setting [2]) is ≥ 90%. Take `N#Cc1ccc(-c2ccc(C(F)(F)F)cn2)cc1SCC1CC1` [I I-5, 2-cyclopropylmethylthio-4-(5-trifluoromethylpyridin-2-yl)benzonitrile]: the melting point was in the range of 135 to 136 °C. Besides, the pest or weed control at 500 µg/mL in data set [1] (setting [2]) was ≥ 90%.

Take `N#Cc1ccc(-c2ccc(Cl)s2)cc1SCC1CC1` [I V-5, 4-(5-chlorothiophen-2-yl)-2-cyclopropylmethylthiobenzonitrile]: the melting point was 123 to 124 °C. For the same molecule, the pest or weed control at 500 µg/mL in data set [1] (setting [2]) was ≥ 90%.
